The values that follow come from publication PMC6271101, “Antioxidant, 5-Lipoxygenase Inhibitory and Cytotoxic Activities of Compounds Isolated from the Ferula lutea Flowers” (Molecules, 2014).

Series [1] can be described thus: MTT cytotoxicity assay, HCT-116. In kind it is cell-based. Conditions: human, HCT-116 colon carcinoma cells; HCT-116, MTT; read-out: Cytotoxic Activity (IC50 µmol/L) HCT-116. The procedure:
(§1) The human cancer cell line was used for cytotoxic assay: (HCT-116, IGROV-1 and OVCAR-3). The cells were grown in RPMI-1640 medium supplemented with 10% faetal calf serum (Gibco, Langley, OK, USA), air and 5% CO2. The isolate was added to a medium containing 1 × 10^6 cells/mL, 2 mM L-glutamine and 50 μg/mL gentamycin, and kept at 37 °C in a fully humidified atmosphere. After 18 h of incubation at 37 °C in 5% CO2 incubator, the tubes were centrifuged at 8000 g for 10 min. The supernatant was decanted, and the pellets taken and washed with 20 mM of phosphate buffered saline solution. Each pellet was dissolved in 100 μL (2 mg/mL) MTT solution in a tube, incubated at 22 °C for 4 h and centrifuged at 8000 g for 10 min. All the pellets were dissolved in 500 μL DMSO and read spectrophotometrically at 500 nm. IC50 was calculated by nonlinear regression analysis. Doxorubicin (HCT116) and tamoxifen (IGROV-1 and OVCAR-3) were used as positive control.
Background: Tetrazolium assays rely on reduction of a dye to a coloured formazan, in cell work by metabolically active cells.

A short description of series [2]: DPPH free radical scavenging test. To be noted: mean ± SD of three measurements; read-out: IC50 (µmol/L) DPPH Assay. The method, then:
The antioxidant activity of compounds was assessed according to their DPPH scavenging ability as described by Khlifi et al., [33] with some modifications. Reaction mixtures, containing 0.1 mL of the relevant compounds solution in methanol, with concentrations ranging 3 mg/mL and 0.1 mL of a 0.2 mM DPPH methanolic solution, were added to 96-well microtiter plates and incubated at 25 °C for 30 min. Absorbances were measured at 520 nm, the wavelength of maximum absorbance of DPPH, were recorded as A(sample). A blank experiment was also carried out applying the same procedure to a solution without the test material and the absorbance was recorded as A(blank).
Ascorbic acid was used as a standard. All measurements were performed in triplicate.

Series [3] relates to 5-lipoxygenase isolated from rat basophilic leukaemia cells (RBL-1). Set-up: method as in doi:10.1016/j.foodchem.2009.09.088. Conditions: at 20 µmol/L; cited from earlier work.
The target of series [4] is T1, 5-lipoxygenase (Glycine max, UniProt P08170).
T1 sequence (P08170 1-839): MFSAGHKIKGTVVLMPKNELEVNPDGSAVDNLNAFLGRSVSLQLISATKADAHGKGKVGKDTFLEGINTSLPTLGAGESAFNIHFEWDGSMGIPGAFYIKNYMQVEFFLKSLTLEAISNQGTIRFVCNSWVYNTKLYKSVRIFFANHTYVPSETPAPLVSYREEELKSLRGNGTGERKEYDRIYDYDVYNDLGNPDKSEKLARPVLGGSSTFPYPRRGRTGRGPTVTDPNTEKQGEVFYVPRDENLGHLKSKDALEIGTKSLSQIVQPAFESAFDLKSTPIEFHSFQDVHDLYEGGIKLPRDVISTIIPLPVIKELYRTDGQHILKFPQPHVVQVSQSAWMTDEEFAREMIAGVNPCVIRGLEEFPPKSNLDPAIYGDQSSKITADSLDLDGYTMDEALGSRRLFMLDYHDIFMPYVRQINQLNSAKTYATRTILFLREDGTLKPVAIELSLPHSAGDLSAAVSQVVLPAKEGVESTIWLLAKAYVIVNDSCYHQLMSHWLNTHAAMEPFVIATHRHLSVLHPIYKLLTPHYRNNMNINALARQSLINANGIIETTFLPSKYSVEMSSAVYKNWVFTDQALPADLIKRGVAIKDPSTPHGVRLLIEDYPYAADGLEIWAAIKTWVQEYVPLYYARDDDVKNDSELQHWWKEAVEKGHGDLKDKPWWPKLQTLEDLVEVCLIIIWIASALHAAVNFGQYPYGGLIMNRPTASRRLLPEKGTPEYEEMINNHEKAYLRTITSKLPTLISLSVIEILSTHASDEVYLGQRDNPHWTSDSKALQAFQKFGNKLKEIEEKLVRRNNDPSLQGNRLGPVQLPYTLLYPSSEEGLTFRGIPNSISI
Description: 5-Lipoxygenase inhibitory assay (linoleic acid, 234 nm). The series is classed as biochemical, Soybean. To be noted: for inhibition at 80 µM: read-out: 5-Lipoxygenase Inhibitory (% at 80 µmol/L). The procedure: The anti-inflammatory activity activities of the isolates was determined on Soybean lipoxygenase as described by Khlifi et al. with some modifications. 20 µL of each compound was mixed individually with 150 µL sodium phosphate buffer (pH 7.4) containing 20 µL of 5-lipoxygenase and 60 µL of linoleic acid (3.5 mM), yielding a final volume of 250 µL. […] The mixture was incubated at 25 °C for 10 min, and the absorbance was determined at 234 nm. The absorption change with the conversion of linoleic acid to 13-hydroperoxyoctadeca-9,11-dienoate (characterized by the appearance of the conjugated diene at 234 nm) was followed for 10 min at 25 °C. […] All measurements were performed in triplicate.

The nature of series [5]: MTT cytotoxicity assay, OVCAR-3. In kind it is cell-based. Conditions: human, OVCAR-3 ovary cells; OVCAR-3, MTT; read-out: Cytotoxic Activity (IC50 µmol/L) OVCAR-3. The method, then: as §1
The conditions of series [6]: previously tested, cited from earlier work.
Series [7] can be described thus: ABTS radical-scavenging test. To be noted: mean ± SD of three measurements; read-out: IC50 (µmol/L) ABTS+ Assay. The procedure: The radical scavenging capacity of the samples for the ABTS (2,2′-azinobis-3-ethylbenzothiazoline-6-sulphonate) radical cation was determined as described by Khlifi et al., [33] with some modifications. ABTS was generated by mixing a 7 mM of ABTS at pH 7.4 (5 mM NaH2PO4, 5 mM Na2HPO4 and 154 mM NaCl) with 2.5 mM potassium persulfate (final concentration) followed by storage in the dark at room temperature for 16 h before use. The mixture was diluted with ethanol to give an absorbance of 0.70 ± 0.02 units at 734 nm using spectrophotometer. For each sample, diluted solution (20 μL) was allowed to react with fresh ABTS solution (180 μL), and then the absorbance was measured 6 min after initial mixing. […] The capacity of free radical scavenging IC50 was determined using the same previously used equation for the DPPH method. All measurements were performed in triplicate.

The nature of series [8]: MTT cytotoxicity assay, IGROV-1. In kind it is cell-based. To be noted: human, IGROV-1 ovary cells; IGROV-1, MTT; read-out: Cytotoxic Activity (IC50 µmol/L) IGROV-1. The method, then: as §1
Series [9] concerns human promyelocytic leukemia cell HL-60. More on the design: method as in PMID 15387667. Conditions: read-out: IC50 against HL-60; cited from earlier work.
Series [10] has as its system LoVo/Doxo. More on the design: method as in PMID 15387667. To be noted: read-out: IC50 against LoVo/Doxo; cited from earlier work.
In series [11] the test system is human fibrosarcoma cell line HT-1080. More on the design: method as in PMID 15387667. Conditions: read-out: IC50 against HT-1080; cited from earlier work.
The subject of series [12] is colon cancer cell line LoVo. Set-up: method as in PMID 15387667. Conditions: read-out: IC50 against LoVo; cited from earlier work.
Details of series [13]: method as in doi:10.1016/j.foodchem.2011.09.005. To be noted: previously tested; read-out: Fe3+ reducing power ability IC50; cited from earlier work.
Series [14] deals with liver cell line Hep-G2. Set-up: method as in PMID 18481014. To be noted: read-out: IC50 against Hep-G2; cited from earlier work.
On the set-up of series [15]: method as in doi:10.1016/j.foodchem.2011.09.005. To be noted: previously tested; read-out: hydrogen peroxide (H2O2) inhibition IC50; cited from earlier work.
[16] abbreviates: read-out: DPPH radical scavenging activity IC50.

The structures appear in SMILES notation. Where “and” joins values, the source holds several entries; their conditions need not be identical. Equal values may be shown once. Read-outs that look alike come from different tables or passages of the source.

`O=C(/C=C/c1ccc(O)c(O)c1)O[C@@H]1C[C@](O)(C(=O)O)C[C@@H](OC(=O)/C=C/c2ccc(O)c(O)c2)[C@H]1O` [Compound 7, 3,5-O-Dicaffeoylquinic acid]: the IC50 at 18 h in series [1], in [5] and in series [8] was greater than 100 µmol/L in each case. Also, the IC50 in [2] was 18 ± 0.5 µmol/L; in [4] it was 10 ± 0.2 µM; in series [6] (setting [16]), 18.2 ± 0.5 µM; in [7] it was 19.7 ± 0.7 µmol/L. Also, the “percent inhibition of 5-lipoxygenase (RBL-1)” value in series [3] is “inactive”.
In the case of `CC1=CC(=O)C2CC1(O[C@@H]1O[C@H](CO)[C@@H](O)[C@H](O)[C@H]1O)C2(C)C` (stereo partly drawn) [Compound 3, Verbenone-5-O-β-D-glucopyranoside], the IC50 at 18 h in series [1], in [5] and in series [8] was greater than 100 µmol/L each time. In addition, the inhibition at 80 µM in [4] amounted to 12.4 ± 0.8%.
Turning to `C/C(=C\C(=O)O)CO` [Compound 2, 4-Hydroxy-3-methylbut-2-enoic acid], the IC50 at 18 h in [1], in series [5] and in [8] was greater than 100 µmol/L in each case. The “5-Lipoxygenase Inhibitory (% at 80 µmol/L)” value in series [4] is reported as “did not exhibit activities”. Further, in series [4], the inhibition at 80 µM was determined as 0%.
Consider `COC(=O)/C=C/c1ccc(O)c(O)c1` [Compound 5, Methyl caffeate], for which the IC50 at 18 h in series [1] came to 22.5 ± 2.4 µmol/L; in [5], 25 ± 1.1 µmol/L; in [8], 17.8 ± 1.1 µmol/L. Moreover, the IC50 is 7.5 ± 1.6 µM in series [9]; no less than 40 µM in [10]; 39.2 ± 0.5 µmol/L in series [2]; 11.1 ± 3.5 µM in [11]; 5.8 ± 1.1 µM in series [12]; 14 ± 2.3 µM in series [6] (setting [16]). In addition, in series [7], the IC50 is 40.8 ± 0.4 µmol/L. Further, the “5-Lipoxygenase Inhibitory (% at 80 µmol/L)” value in series [4] is “did not exhibit activities”. In addition, the inhibition at 80 µM in series [4] was found to be 0%.
Regarding `COc1cccc2c1C(=O)c1c(O)c3c(c(O)c1C2=O)C[C@@](O)(C(=O)CO)C[C@@H]3O[C@H]1C[C@H](N)[C@H](O)[C@H](C)O1` [Doxorubicin, reference compound], in series [1], the IC50 at 18 h is 0.18 ± 0.01 µmol/L.
For the compound `C/C(O[C@@H]1O[C@H](CO)[C@@H](O)[C@H](O)[C@H]1O)=C1/C=CC(=O)O1` [Compound 1, (E)-5-Ethylidenefuran-2(5H)-one-5-O-β-D-glucopyranoside], the IC50 at 18 h in series [1], in series [5] and in [8] was greater than 100 µmol/L in each case. Also, in series [4], the inhibition at 80 µM came to 16.9 ± 1.2%.
As to `O=C1O[C@H]([C@@H](O)CO)C(O)=C1O` [Vitamin C, ascorbic acid, reference compound], the IC50 in [2] was found to be 25 ± 1.1 µmol/L; in series [7], 23.3 ± 0.1 µmol/L.
As to `CC(C)(O)[C@@H]1Cc2cc3ccc(=O)oc3cc2O1` [Compound 9, (−)-Marmesin], the values for the IC50 at 18 h in series [1], in [5] and in [8] were 50 ± 4.9 µmol/L, greater than 100 µmol/L and greater than 100 µmol/L, respectively. The “5-Lipoxygenase Inhibitory (% at 80 µmol/L)” value in series [4] is given as “did not exhibit activities”. Further, the inhibition at 80 µM in series [4] came to 0%.
Regarding `COC(=O)[C@]1(O)C[C@@H](OC(=O)/C=C/c2ccc(O)c(O)c2)[C@@H](O)[C@H](OC(=O)/C=C/c2ccc(O)c(O)c2)C1` [Compound 6, Methyl 3,5-O-Dicaffeoylquinate], the IC50 at 18 h in [1], in series [5] and in series [8] was greater than 100 µmol/L each time. Further, the IC50 in series [13] was 270 ± 7.37 µM; in series [14], 72.7 ± 6.2 µM; in series [2] it was 26.6 ± 1.3 µmol/L; in [4] it was 5.3 µM and 5.28 µM; in series [6] (read-out: DPPH IC50), 10.3 ± 0.24 µM; in series [15], 316.4 ± 2.86 µM. In addition, in series [7], the IC50 was found to be 20 ± 0.3 µmol/L. Further, the “percent inhibition of 5-lipoxygenase (RBL-1)” value in series [3] is recorded as 15.1%.
As for `CC/C(=C(\c1ccccc1)c1ccc(OCCN(C)C)cc1)c1ccccc1` [Tamoxifen, tamoxifen, reference compound], the figures for the IC50 at 18 h in series [5] and in [8] were 1.3 ± 0.1 µmol/L and 2 ± 0.1 µmol/L, respectively.
Take `O=C(/C=C/c1ccc(O)c(O)c1)O[C@@H]1C[C@](O)(C(=O)O)C[C@@H](O)[C@H]1O` [Compound 4, 5-O-Caffeoylquinic acid]: the IC50 at 18 h in [1], in series [5] and in series [8] was greater than 100 µmol/L throughout. Also, the inhibition at 80 µM in series [4] amounted to 17.1 ± 1.1%.
As to `Cc1ccc(C)c(C=O)c1C` [Compound 11, 2,3,6-Trimethylbenzaldehyde], the IC50 at 18 h in series [1], in [5] and in series [8] was greater than 100 µmol/L in each case. In series [4], the “5-Lipoxygenase Inhibitory (% at 80 µmol/L)” value was “did not exhibit activities”. The inhibition at 80 µM in series [4] was 0%.
For `CC(C)=CCOc1c2ccoc2cc2oc(=O)ccc12` [Compound 10, Isoimperatorin], the IC50 at 18 h in series [1], in [5] and in series [8] was greater than 100 µmol/L each time. Besides, the “5-Lipoxygenase Inhibitory (% at 80 µmol/L)” value in [4] was “did not exhibit activities”. Besides, the inhibition at 80 µM in series [4] turned out to be 0%.
